Columns and labels:
bed bugs [1] = test: Behavioural bioassay, dose responses of individual chemicals (Example 8); assay type: in vivo, Cimex lectularius; conditions: all doses 0.008× to 8000×
Method: Methods: The behavioural bioassay was as described by Weeks et al. 2011 and recorded using EthoVision and the methodology described by Weeks et al. 2013. For each chemical, (E)-2-octenal, (RS)-1-octen-3-ol and nonanal, seven doses were tested from 0.008× to 8000×, along with three controls. Each replicate was completed as a block of 10 treatments including: We are referring here to either 0.001×, 0.01×, 0.1×, 1×, 10×, 100× or 1000× the dose of (E)-2-octenal found naturally in the aggregation pheromone. For instance, an “8% solution” refers to an 8% dose of volatile extract (with the various different ratios of individual component). In each block the order of the treatments and the position of the odour pot were randomized. 10 blocks were completed for each chemical (n=10).

bed bug antennae = test: Coupled gas chromatography-electroantennography (GC-EAG) of volatile extract from bed bug-exposed paper; parameters: species or system Cimex lectularius; conditions: for Responses Total: males plus females, 20 insects tested; for Responses Females: number of females giving an EAG response to the peak; for Responses Females / Responses Males: volatile extract 1 μL; for Responses Males: number of males giving an EAG response to the peak; for electroantennogram (EAG) response: result in words; for Visual inspection (no of responses) >5 / Visual inspection (no of responses) >10 / Visual inspection (no of responses) >15: threshold of individuals responding; for Visual inspection (no of responses) Response: total EAG responses, Table 8; for Electrophysiology Auto method: bullet = marked under the Auto method
Excerpt: Experimental insects, unless otherwise stated, were mated males and females of C. lectularius that had been fed 7 to 14 days previously on heparinised sheep blood. The electrodes used to make recordings were Ag/AgCl wires (diameter 0.37 mm) inserted into glass pipettes, made from borosilicate glass capillaries (outer diameter 2.0 mm; inner diameter 1.16 mm). The glass pipettes were filled with Ringers solution (7.55 g NaCl, 0.64 g KCl, 0.22 g CaCl2, 1.73 g MgCl2 g, 0.86 g NaHCO3 and 0.61 g Na3PO4 L^−1 water). The bed bug was then chilled on ice for one minute before dissection. Preparations were held in a continuous, humidified, charcoal filtered air flow ([…]) coming from a glass tube, which was positioned 5 mm from the antennal preparation. Once the antennal preparation and EAG equipment were in position the microscope light was switched off.
The GC used was a HP-680N, containing a HP-1 column (30 m×0.32 mm; film thickness, 0.52 μm) with a COC injector, hydrogen carrier gas and a FID. The oven temperature was maintained at 40° C. for two min and then programmed at 5° C. min^−1 to 100° C. and then at 10° C. […] to 250° C. The end of the column was inserted into the centre of the main air flow so that the eluent went over the antennal preparation. […] Amplification of the signals was set at ×10,000. Signals were analysed using the computer-based software package, EAD 2000 (Syntech®, The Netherlands). The volatile extract (1 μL) from an air entrainment of bed bug-exposed papers (see Example 1) was injected onto the column. A solution of n-alkanes (C7-C25, 1 μL of 100 ng μL^−1) in hexane was also analysed to calculate the retention indices (RI) of any EAG-active peaks for comparison with GC and coupled GC-MS traces (Equation 1).
Electroantennographic (EAG) responses from the coupled gas chromatography-electroantennographic (GC-EAG) analysis of the volatile extract collected using air entrainment were determined by visual appearance. Coupled GC-EAG traces were examined visually on a light box to identify EAG responses and match them to peaks on the GC traces. A combination of characteristics including the amplitude and shape of the deflection from the baseline were used to identify EAG responses. For example, an EAG response is usually of greater amplitude than the background noise and it has a characteristic negative deflection followed by a quick positive deflection resulting in a short sharp response often of similar shape and position as the corresponding peak on the GC trace. Responses were matched between males and females separately onto master traces for each sex. The EAG-active peaks were labelled from 1 to 21. Male and female master traces were then overlaid to identify where consistent responses occurred in both sexes. Five or more individuals responding at the same retention time on the GC trace was considered to be a consistent EAG response and the corresponding peak on the GC trace was considered to be EAG-active. Three thresholds were used: greater than 5, greater than 10 or greater than 15 individuals responding to the same GC peak or at the same retention time. The traces were then subjected to manual or automated statistical analysis.

bed bugs [2] = conditions: cited from earlier work; for attraction of bed bugs to safe shelters: volatile components of aggregation pheromone

| Structure (SMILES) | time spent above the odour pot compared to zero (bed bugs [1]) | Responses Total (bed bug antennae) | Responses Females (bed bug antennae) | Responses Males (bed bug antennae) | electroantennogram (EAG) response (bed bug antennae) | Visual inspection (no of responses) >5 (bed bug antennae) | Visual inspection (no of responses) >10 (bed bug antennae) | Visual inspection (no of responses) Response (bed bug antennae) | Electrophysiology Auto method (bed bug antennae) | Visual inspection (no of responses) >15 (bed bug antennae) | attraction of bed bugs to safe shelters (bed bugs [2]) | arrestment of bed bugs (bed bugs [2]; less-volatile component) |
| --- | --- | --- | --- | --- | --- | --- | --- | --- | --- | --- | --- | --- |
| C=CC(O)CCCCC (racemic) [(RS)-1-Octen-3-ol, (RS)-1-octen-3-ol] | none of the (RS)-1-octen-3-ol doses resulted in significantly more | 11 | 7 | 4 | EAG-active | • (>5) | • (>10) | 11 |  |  |  |  |
| CC1=CCC2C(C1)C2(C)C (single isomer, unassigned) [3-Carene, 3-carene] |  | 11 | 7 | 4 | EAG-active | • (>5) | • (>10) | 11 |  |  |  |  |
| CC/C=C/C=C/C(C)=O (single isomer, unassigned) [(3E,5E)-Octadien-2-one, (3E,5E)-octadien-2-one] |  | 13 | 5 | 8 | EAG-active | • (>5) | • (>10) | 13 | • |  |  |  |
| O=Cc1ccccc1 (single isomer, unassigned) [Benzaldehyde, benzaldehyde] |  | 8 | 3 | 5 | EAG-active | • (>5) |  | 8 |  |  |  |  |
| CCCCCCC=O (single isomer, unassigned) [Heptanal, heptanal] |  | 13 | 7 | 6 | EAG-active | • (>5) | • (>10) | 13 | • |  |  |  |
| CCCCCC=O (single isomer, unassigned) [Hexanal, hexanal] |  | 9 | 4 | 5 | EAG-active | • (>5) |  | 9 |  |  |  |  |
| CCCCCCCC=O (single isomer, unassigned) [Octanal, octanal] |  | 19 | 10 | 9 | EAG-active | • (>5) | • (>10) | 19 | • | • (>15) |  |  |
| C=C1C=CC(C(C)C)CC1 (single isomer, unassigned) [β-Phellandrene, β-phellandrene] |  | 11 | 6 | 5 | EAG-active | • (>5) | • (>10) | 11 |  |  |  |  |
| CCCCOCCOCCOC(C)=O [2-(2-Butoxyethoxy)-acetate ethanol, 2-(2-butoxyethoxy)ethyl acetate] |  | 12 | 5 | 7 | EAG-active | • (>5) | • (>10) | 12 |  |  |  |  |
| CCCCCCCCC(C)=O [2-Decanone, 2-decanone] |  | 9 | 4 | 5 | EAG-active | • (>5) |  | 9 |  |  |  |  |
| CCCCC(C)=O [2-hexanone] |  |  |  |  |  |  |  |  |  |  | attract bed bugs to safe shelters |  |
| CCCCCC/C=C/C=O [(E)-2-Nonenal, (E)-2-nonenal] |  | 13 | 8 | 5 | EAG-active | • (>5) | • (>10) | 13 | • |  |  |  |
| CCCCCCCC/C=C/C=O [(E)-2-Undecenal, (E)-2-undecenal] |  | 9 | 5 | 4 | EAG-active | • (>5) |  | 9 |  |  |  |  |
| CCC/C=C/C=O [(E)-2-hexenal] |  |  |  |  |  |  |  |  |  |  | attract bed bugs to safe shelters |  |
| C=C1/C=C/[C@H](C(C)C)CC/C(C)=C/CC1 [(S)-(−)-Germacrene D, (S)-(−)-germacrene D] |  | 14 | 7 | 7 | EAG-active | • (>5) | • (>10) | 14 |  |  |  |  |
| CCCCCCCCCC=O [Decanal, decanal] |  | 12 | 5 | 7 | EAG-active | • (>5) | • (>10) | 12 |  |  |  |  |
| CCCCCCCCCCCC [Dodecane, dodecane] |  | 16 | 8 | 8 | EAG-active | • (>5) | • (>10) | 16 | • | • (>15) |  |  |
| CCCCCCCCC(=O)O [Nonanoic acid, nonanoic acid] |  | 12 | 6 | 6 | EAG-active | • (>5) | • (>10) | 12 |  |  |  |  |
| CSSC [dimethyl disulfide] |  |  |  |  |  |  |  |  |  |  | attract bed bugs to safe shelters |  |
| CSSSC [dimethyl trisulfide] |  |  |  |  |  |  |  |  |  |  | attract bed bugs to safe shelters |  |
| NCCc1c[nH]cn1 [histamine] |  |  |  |  |  |  |  |  |  |  |  | causes their arrestment upon contact |

Source: patent US10653138B2, “Composition for attracting bed bugs” (London School of Hygiene & Tropical Medicine, priority 2015, dated 2020)
